ChEMBL document CHEMBL3244320, “2-Acetylpyridine thiosemicarbazones. 1. A new class of potential antimalarial agents” (J Med Chem, 1979)
The source made the active and inactive calls. The calls are words filed in the database; no cut-off is given here.

The molecules below were run on Plasmodium berghei (assay: Antimalarial activity against Plasmodium berghei KBG 173 infected in ICR/HA Swiss mouse assessed as increase in mean survival time at 640 mg/kg, sc administered 72 hrs post infection). Details: route subcutaneous.
Assay type: functional

With C/C(=N\NC(=S)NCCc1ccccc1)c1ccccn1 as the molecule, how does the MST read?
The MST was 8.8 days.

How did the MST turn out when C/C(=N\NC(=S)NC12CC3CC(CC(C3)C1)C2)c1ccccn1 was run?
The MST was 9.2 days.

With C/C(=N\NC(=S)Nc1ccccc1C)c1ccccn1 as the molecule, how does the MST read?
The MST was 9.9 days.

Each molecule was assayed on Plasmodium berghei (assay: Antimalarial activity against Plasmodium berghei KBG 173 infected in ICR/HA Swiss mouse assessed as increase in mean survival time at 160 mg/kg, sc administered 72 hrs post infection). Details: route subcutaneous.
Assay type: functional

CCN(CC)Cc1cc(NC(=S)N/N=C(\C)c2ccccn2)ccc1O.Cl.O was tested. Which MST did it give?
The MST was 8.8 days.

Which MST does the source give for C/C(=N\NC(=S)Nc1ccc(C)cc1)c1ccccn1 here?
Its MST is 4.5 days.

How did the MST turn out when C=CCNC(=S)N/N=C(\C)c1ccccn1 was run?
The MST was 3.1 days.

With Br.CCN(CC)CCNC(=S)N/N=C(\C)c1ccccn1 as the molecule, how does the MST read?
Its MST is 0.5 days.

Which MST does the source give for C/C(=N\NC(=S)Nc1cccc(C)c1)c1ccccn1 here?
The MST was 7.4 days.

How did the MST turn out when C/C(=N\NC(=S)Nc1cccc(F)c1)c1ccccn1 was run?
The MST was 6.6 days.

With C/C(=N\NC(=S)Nc1ccccc1F)c1ccccn1 as the molecule, how does the MST read?
Its MST is 6.8 days.

How did the MST turn out when C/C(=N\NC(=S)NCCc1ccccc1)c1ccccn1 was run?
The MST was 2 days.

For C/C(=N\NC(=S)NC12CC3CC(CC(C3)C1)C2)c1ccccn1, which MST is on record?
The MST was 3.7 days.

How did the MST turn out when C/C(=N\NC(=S)Nc1ccccc1C)c1ccccn1 was run?
The MST was 0.9 days.

For C/C(=N\NC(=S)NCCO)c1ccccn1, which MST is on record?
Its MST is 0.5 days.

These molecules were tested on Plasmodium berghei (assay: Antimalarial activity against Plasmodium berghei KBG 173 infected in ICR/HA Swiss mouse assessed as increase in mean survival time at 40 mg/kg, sc administered 72 hrs post infection). Details: route subcutaneous.
Assay type: functional

Which MST does the source give for CCN(CC)Cc1cc(NC(=S)N/N=C(\C)c2ccccn2)ccc1O.Cl.O here?
The MST was 2 days.

For Br.C/C(=N\NC(=S)NCC(C)N(C)C)c1ccccn1 (configuration not stated), which MST is on record?
The MST was 0.1 days.

C/C(=N\NC(=S)Nc1ccc(C)cc1)c1ccccn1 was tested. Which MST did it give?
Its MST is 0.3 days.

For Br.CCN(CC)CCCC(C)NC(=S)N/N=C(\C)c1ccccn1 (configuration not stated), which MST is on record?
The MST was 0.3 days.

With C=CCNC(=S)N/N=C(\C)c1ccccn1 as the molecule, how does the MST read?
Its MST is 0.5 days.

Br.CCN(CC)CCNC(=S)N/N=C(\C)c1ccccn1 was tested. Which MST did it give?
The MST was 0.3 days.

C/C(=N\NC(=S)Nc1cccc(C)c1)c1ccccn1 was tested. Which MST did it give?
Its MST is 0.4 days.

Which MST does the source give for C/C(=N\NC(=S)Nc1cccc(F)c1)c1ccccn1 here?
The MST was 4.4 days.

With C/C(=N\NC(=S)Nc1ccccc1F)c1ccccn1 as the molecule, how does the MST read?
Its MST is 0 days.

Which MST does the source give for C/C(=N\NC(=S)NCCc1ccccc1)c1ccccn1 here?
Its MST is -0.2 days.

For C/C(=N\NC(=S)NC12CC3CC(CC(C3)C1)C2)c1ccccn1, which MST is on record?
The MST was 0.7 days.

With C/C(=N\NC(=S)Nc1ccccc1C)c1ccccn1 as the molecule, how does the MST read?
The MST was 0.1 days.

C/C(=N\NC(=S)NCCO)c1ccccn1 was tested. Which MST did it give?
Its MST is 0.3 days.

What follows are molecules tested on Mus musculus (assay: Toxicity in ICR/HA Swiss mouse infected with Plasmodium berghei KBG 173 assessed as mortality at 160 mg/kg, sc administered 72 hrs post infection measured for 6 days). Details: in vivo, 144 h.
Assay type: organism-based
Design: dose 160 mg/kg, route subcutaneous

Which Activity does the source give for C/C(=N\NC(N)=S)c1ccccn1 here?
The Activity was “Toxic”.

Each molecule was assayed on Plasmodium berghei (assay: Antimalarial activity against Plasmodium berghei KBG 173 infected in ICR/HA Swiss mouse assessed as increase in mean survival time at 320 mg/kg, sc administered 72 hrs post infection). Details: route subcutaneous.
Assay type: functional

C=CCNC(=S)N/N=C(\C)c1ccccn1 was tested. Which MST did it give?
The MST was 3 days.

How did the MST turn out when C/C(=N\NC(=S)Nc1cccc(C)c1)c1ccccn1 was run?
Its MST is 10.3 days.

C/C(=N\NC(=S)NCCc1ccccc1)c1ccccn1 was tested. Which MST did it give?
The MST was 6.6 days.

How did the MST turn out when C/C(=N\NC(=S)NC12CC3CC(CC(C3)C1)C2)c1ccccn1 was run?
Its MST is 8.5 days.

With C/C(=N\NC(=S)Nc1ccccc1C)c1ccccn1 as the molecule, how does the MST read?
Its MST is 5.1 days.

The molecules below were run on Plasmodium berghei (assay: Antimalarial activity against Plasmodium berghei KBG 173 infected in ICR/HA Swiss mouse assessed as increase in mean survival time at 80 mg/kg, sc administered 72 hrs post infection). Details: route subcutaneous.
Assay type: functional

CCN(CC)Cc1cc(NC(=S)N/N=C(\C)c2ccccn2)ccc1O.Cl.O was tested. Which MST did it give?
Its MST is 5.6 days.

Which MST does the source give for C/C(=N\NC(=S)Nc1ccc(C)cc1)c1ccccn1 here?
Its MST is 2.1 days.

How did the MST turn out when C=CCNC(=S)N/N=C(\C)c1ccccn1 was run?
Its MST is 2.3 days.

Which MST does the source give for C/C(=N\NC(=S)Nc1cccc(C)c1)c1ccccn1 here?
The MST was 3 days.

With C/C(=N\NC(=S)Nc1cccc(F)c1)c1ccccn1 as the molecule, how does the MST read?
The MST was 5.8 days.

For C/C(=N\NC(=S)Nc1ccccc1F)c1ccccn1, which MST is on record?
Its MST is 2.6 days.

Which MST does the source give for C/C(=N\NC(=S)NCCc1ccccc1)c1ccccn1 here?
Its MST is 0.6 days.

How did the MST turn out when C/C(=N\NC(=S)NC12CC3CC(CC(C3)C1)C2)c1ccccn1 was run?
The MST was 1.1 days.

How did the MST turn out when C/C(=N\NC(=S)Nc1ccccc1C)c1ccccn1 was run?
Its MST is 0.5 days.

Each molecule was assayed on Plasmodium berghei (assay: Antimalarial activity against Plasmodium berghei KBG 173 infected in ICR/HA Swiss mouse at 40 to 640 mg/kg, sc administered 72 hrs post infection). Details: not given.
Assay type: functional, organism-based

Which Activity does the source give for C/C(=N\NC(=S)NC12CC3CC(CC(C3)C1)C2)c1ccncc1 here?
Its Activity is “inactive”.

How did the Activity turn out when C/C(=N\NC(=S)Nc1ccccc1)c1ccncc1 was run?
The Activity was “inactive”.

For C/C(=N\NC(=S)NC12CC3CC(CC(C3)C1)C2)c1cccnc1, which Activity is on record?
Its Activity is “inactive”.

Which Activity does the source give for C/C(=N\NC(=O)Nc1ccccc1)c1ccccn1 here?
The Activity was “inactive”.

For C/C(=N\NC(=S)Nc1ccccn1)c1cccnc1, which Activity is on record?
The Activity was “inactive”.

With C/C(=N\NC(=S)Nc1ccccc1)c1cccnc1 as the molecule, how does the Activity read?
The Activity was “inactive”.

For C/C(=N\NC(=S)Nc1ccccn1)c1ccncc1, which Activity is on record?
The Activity was “inactive”.

What follows are molecules tested on Mus musculus (assay: Toxicity in ICR/HA Swiss mouse infected with Plasmodium berghei KBG 173 assessed as mortality at 320 mg/kg, sc administered 72 hrs post infection measured for 6 days). Details: in vivo, 144 h.
Assay type: organism-based
Design: dose 320 mg/kg, route subcutaneous

With CCN(CC)Cc1cc(NC(=S)N/N=C(\C)c2ccccn2)ccc1O.Cl.O as the molecule, how does the Activity read?
The Activity was “Toxic”.

For Br.CCN(CC)CCNC(=S)N/N=C(\C)c1ccccn1, which Activity is on record?
The Activity was “Toxic”.

The molecules below were run on Plasmodium berghei (assay: Antimalarial activity against Plasmodium berghei KBG 173 infected in ICR/HA Swiss mouse assessed as curative effect at 320 mg/kg, sc administered 72 hrs post infection). Details: not given.
Assay type: functional, organism-based
Design: dose 320 mg/kg

Which Activity does the source give for C/C(=N\NC(=S)Nc1ccc(C)cc1)c1ccccn1 here?
Its Activity is “Active”.

With C/C(=N\NC(=S)Nc1cccc(C)c1)c1ccccn1 as the molecule, how does the Activity read?
The Activity was “Active”.

For C/C(=N\NC(=S)Nc1cccc(F)c1)c1ccccn1, which Activity is on record?
The Activity was “Active”.

C/C(=N\NC(=S)Nc1ccccc1F)c1ccccn1 was tested. Which Activity did it give?
Its Activity is “Active”.

These molecules were tested on Mus musculus (assay: Toxicity in ICR/HA Swiss mouse infected with Plasmodium berghei KBG 173 assessed as mortality at 640 mg/kg, sc administered 72 hrs post infection measured for 6 days). Details: in vivo, 144 h.
Assay type: organism-based
Design: dose 640 mg/kg, route subcutaneous

Br.C/C(=N\NC(=S)NCC(C)N(C)C)c1ccccn1 (configuration not stated) was tested. Which Activity did it give?
Its Activity is “Toxic”.

For C/C(=N\NC(N)=S)c1ccccn1, which Activity is on record?
The Activity was “Toxic”.

With Br.CCN(CC)CCCC(C)NC(=S)N/N=C(\C)c1ccccn1 (configuration not stated) as the molecule, how does the Activity read?
Its Activity is “Toxic”.

How did the Activity turn out when C=CCNC(=S)N/N=C(\C)c1ccccn1 was run?
Its Activity is “Toxic”.

Which Activity does the source give for Br.CCN(CC)CCNC(=S)N/N=C(\C)c1ccccn1 here?
Its Activity is “Toxic”.

With C/C(=N\NC(=S)NCCO)c1ccccn1 as the molecule, how does the Activity read?
Its Activity is “Toxic”.

Each molecule was assayed on Mus musculus (assay: Toxicity in ICR/HA Swiss mouse infected with Plasmodium berghei KBG 173 assessed as mortality at 40 mg/kg, sc administered 72 hrs post infection measured for 6 days). Details: in vivo, 144 h.
Assay type: organism-based
Design: dose 40 mg/kg, route subcutaneous

Which Activity does the source give for C/C(=N\NC(N)=S)c1ccccn1 here?
Its Activity is “Toxic”.
